Experimental data as given in article PMC8653295 (Chemistry (Weinheim an Der Bergstrasse, Germany), 2021).
Where “and” joins values, the source holds several entries; their conditions need not be identical. Equal values may be shown once. Entries after “also recorded” stand apart in the source; their conditions may differ.

Experiments:
[1] = target: interaction of the RBD of the SARS‐CoV‐2 S protein with the ACE2 receptor (Severe acute respiratory syndrome coronavirus 2, UniProt P0DTC2); format: binding; conditions: for inhibition of the S/ACE2 interaction: 20 µM
SARS‐CoV PL^pro = SARS‐CoV PL^pro (Severe acute respiratory syndrome coronavirus, UniProt P0C6X7); assay: biochemical; format: biochemical; conditions: for inhibition of SARS-CoV PLpro: 10 µM
SARS‐CoV‐2 PL^pro = SARS‐CoV‐2 PL^pro (Severe acute respiratory syndrome coronavirus 2, UniProt P0DTD1); assay: biochemical; format: biochemical; conditions: for inhibition of SARS-CoV-2 PLpro: 1 µM
SARS‐CoV‐2 = format: cell-based

Row | Molecule | inhibition of the S/ACE2 interaction [1] [%] | inhibition of SARS-CoV PLpro (SARS‐CoV PL^pro) | inhibition of SARS-CoV-2 PLpro (SARS‐CoV‐2 PL^pro) | antiviral effect against SARS‐CoV‐2 replication (in words) (SARS‐CoV‐2) | concentration up to which no significant cytotoxic effects / tolerated well (Caco‐2 cells) [µM] | concentration up to which no significant cytotoxic effects / tolerated well (CaLu‐3 cells) [µM] | also measured
1 | [Pd16Na2O26 (OH)3Cl3((CH3)2As)8] ⋅ 0.25Na(CH3)2AsO2 ⋅ 17H2O [POM‐11] | 75 | 100% | 85% | antiviral activity starting at low micromolar concentrations | ≥ 200 | ≥ 200 | concentration at which antiviral effects were shown (SARS‐CoV‐2): 50 µM
2 | O=C(O)CC([S-])C(=O)O.[Au+] (centres unmarked) [Au‐2, aurothiomalate, reference compound] | 18 | 91% and > 50% | 64% and > 50% | not active | ≥ 500 | ≥ 500 | IC50 (SARS‐CoV PL^pro): 690 ± 200 nM; IC50 SARS‐CoV PL^pro (SARS‐CoV PL^pro): Submicromolar; IC50 (SARS‐CoV‐2 PL^pro): 600 ± 250 nM; IC50 SARS‐CoV‐2 PL^pro (SARS‐CoV‐2 PL^pro): Submicromolar
3 | Rb5.5Na4.5[{(p‐tolyl)Sb}4(PW9O34)2] ⋅ 40H2O [POM‐6] | 91 | 80% | 58% |  |  |  | cytotoxicity (in words) (Caco‐2 cells): strongly toxic; cytotoxicity (in words) (CaLu‐3 cells): strongly toxic
4 | Rb6Na6[{(p‐tolyl)Sb}4(GeW9 O34)2] ⋅ 40H2O [POM‐7] | 98 | 92% | 67% |  |  |  | cytotoxicity (in words) (Caco‐2 cells): strongly toxic; cytotoxicity (in words) (CaLu‐3 cells): strongly toxic
5 | Na6[TeW6O24] ⋅ 22H2O [POM‐5] |  | 49% | 69% |  | ≥ 200 | ≥ 200 | 
6 | Na12[PbO8Pd12 (PO4)8] ⋅ 38H2O [POM‐1] | 52 | 100% | 68% |  | ≥ 200 | ≥ 200 | 
7 | CCC(CC)COC(=O)[C@H](C)N[P@](=O)(OC[C@H]1O[C@@](C#N)(c2ccc3c(N)ncnn23)[C@H](O)[C@@H]1O)Oc1ccccc1 [Remdesivir, remdesivir, reference compound] |  |  |  | efficiently inhibited viral replication at low micromolar concentrations |  |  | 
8 | [Cl-].[Cl-].[Ti+4].c1cc[cH-]c1.c1cc[cH-]c1 [Ti‐1, titanocene dichloride, reference compound] | 69 | 6% | -13% | active at 125 and 500 μM; also recorded: strongly blocked viral replication at a high dosage of 500 μM | ≥ 500 | ≥ 500 | IC50 ([1]; read-out: IC50 as inhibitors of the S/ACE2 interaction): 3900 ± 300 nM; activity against SARS‐CoV PL^pro (in words) (SARS‐CoV PL^pro): inactive; activity against SARS‐CoV‐2 PL^pro (in words) (SARS‐CoV‐2 PL^pro): inactive; concentration at which antiviral effects were shown (SARS‐CoV‐2): higher than 100 μM
9 | CO[C@H]1O[C@H](CNC(=O)C2CCN(C(=S)[S-])CC2)[C@@H](O)[C@H](O)[C@H]1O.[Au+3].[Br-].[Br-] [Au‐33] | 10 | 78% | 99% | inactive at low dosages; also recorded: completely blocked SARS‐CoV‐2 at 500 μM; also recorded: strongly blocked viral replication at a high dosage of 500 μM | ≥ 500 | ≥ 500 | IC50 (SARS‐CoV PL^pro): 1040 ± 270 nM; IC50 (SARS‐CoV‐2 PL^pro): 210 ± 40 nM
10 | CO[C@H]1O[C@H](CO)[C@@H](O)[C@H](O)[C@H]1NC(=O)C1CCN(C(=S)[S-])CC1.[Au+3].[Br-].[Br-] [Au‐34] | 15 | 86% | 98% | inactive at low dosages; also recorded: completely blocked SARS‐CoV‐2 at 500 μM; also recorded: strongly blocked viral replication at a high dosage of 500 μM | ≥ 500 | ≥ 500 | IC50 (SARS‐CoV PL^pro): 1150 ± 340 nM; IC50 (SARS‐CoV‐2 PL^pro): 90 ± 40 nM
11 | C1=CCCC=CCC1.CCn1[c-][n+](CC)c(-c2ccccc2)c1.[Br-].[Rh+] [Rh‐2] | 1 | 67% | 17% |  |  |  | 
12 | C1=CCCC=CCC1.CCn1[c-][n+](CC)c(-c2ccc(F)cc2)c1.[Cl-].[Rh+] [Rh‐4] | 6 | 72% | 17% |  |  |  | 
13 | Na12[SnO8Pd12(PO4)8] ⋅ 43H2O [POM‐2] | 50 | 100% | 66% |  | ≥ 200 | ≥ 200 | 
14 | [Cl][Au-][c]1n(Cc2ccccc2)cc(-c2ccccc2)[n+]1Cc1ccccc1 [Au‐17] | 9 | -3% | 13% |  |  |  | activity against SARS‐CoV PL^pro (in words) (SARS‐CoV PL^pro): inactive; activity against SARS‐CoV‐2 PL^pro (in words) (SARS‐CoV‐2 PL^pro): inactive
15 | CCn1[c]([Au-][Cl])[n+](CC)c2cc(C(=O)OC)ccc21 [Au‐12] | 19 |  |  | at 6.25 and 25 μM concentrations efficiently inhibited; also recorded: antiviral activity starting at low micromolar concentrations |  |  | IC50 (SARS‐CoV PL^pro): 330 ± 110 nM; IC50 (SARS‐CoV‐2 PL^pro): 1100 ± 60 nM
16 | Cc1ccc(C(C)C)cc1.Cc1ccc2c(c1)[n+](Cc1ccccc1)[c-]n2Cc1ccccc1.[Br-].[Br-].[Ru+2] [Ru‐2] | 0 | 20% | 5% |  |  |  | 
17 | ((NH2)3C)4[(N3C6H4As)2Mo6O24] [POM‐10] | 6 | 7% | 4% |  |  |  | 
18 | CC(C)n1[c]([Au-][c]2n(C(C)C)c3ccccc3[n+]2C(C)C)[n+](C(C)C)c2ccccc21.[Br-] [Au‐22] | 23 | 39% | 7% |  |  |  | 
19 | Cc1ccc(C(C)C)cc1.[Cl-].[Cl-].[Ru+2].[c-]1n(Cc2ccccc2)cc[n+]1Cc1ccccc1 [Ru‐9] | 2 | 12% | 10% |  |  |  | 
20 | C1=CCCC=CCC1.CCn1[c-][n+](CC)c(-c2ccc(F)cc2)c1.[I-].[Rh+] [Rh‐6] | 22 | 70% | 19% |  |  |  | 
21 | C1=CCCC=CCC1.Cn1[c-][n+](C)c(-c2ccc(F)cc2)c1.[Cl-].[Rh+] [Rh‐10] | 14 | 90% | 45% |  |  |  | 
